# Measured values: ChEMBL document CHEMBL3526034 (Drug Metab Dispos, 2013)
# Tests used:
# [1] = tested on: Hepatocyte; experiment: Induction of CYP2B6 mRNA expression in human hepatocytes at 1 to 40 uM after 48 hrs by real time PCR analysis; type: ADME, cell-based
# [2] = biological target: UDP-glucuronosyltransferase 2B15 (Homo sapiens, UniProt P54855); experiment: (§1) Drug metabolism assessed as UDPGA-fortified human recombinant UGT2B15-mediated DTG glucuronide metabolite ((2S,3S,4S,5R,6S)-6-((4R,12aS)-9-(2,4-difluorobenzylcarbamoyl)-4-methyl-6,8-dioxo-3,4,6,8,12,12a-hexahydro-2H-[1,3]oxazino[3,2-d]pyrido[1,2-a]pyrazin-7-yloxy)-3,4,5-trihydroxytetrahydro-2H-pyran-2-carboxylic acid) formation at 16 uM after 120 mins by radio-HPLC analysis; type: ADME; details: recombinant enzyme
# Sequence of UDP-glucuronosyltransferase 2B15 (P54855 whole entry): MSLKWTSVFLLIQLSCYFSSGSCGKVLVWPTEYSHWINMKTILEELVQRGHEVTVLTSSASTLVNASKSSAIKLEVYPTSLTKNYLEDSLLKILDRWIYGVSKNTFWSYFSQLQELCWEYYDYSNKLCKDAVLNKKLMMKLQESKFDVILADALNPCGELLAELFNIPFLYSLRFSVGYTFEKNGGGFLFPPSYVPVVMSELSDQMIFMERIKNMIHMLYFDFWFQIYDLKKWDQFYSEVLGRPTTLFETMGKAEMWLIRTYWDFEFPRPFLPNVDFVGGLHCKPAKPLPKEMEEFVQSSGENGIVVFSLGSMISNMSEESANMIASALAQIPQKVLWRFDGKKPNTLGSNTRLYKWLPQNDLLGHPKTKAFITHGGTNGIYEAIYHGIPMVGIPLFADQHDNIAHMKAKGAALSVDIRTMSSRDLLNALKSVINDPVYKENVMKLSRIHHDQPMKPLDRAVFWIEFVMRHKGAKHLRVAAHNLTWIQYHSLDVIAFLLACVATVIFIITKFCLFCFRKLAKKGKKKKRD
# [3] = biological target: T1, Broad substrate specificity ATP-binding cassette transporter ABCG2 (Homo sapiens, UniProt Q9UNQ0); experiment: Inhibition of BCRP (unknown origin) expressed in MDCK2 cells assessed as basolateral to apical transport of [14C]cimetidine after 90 mins by liquid scintillation counting analysis; type: ADME, cell-based, MDCK-II
# T1 sequence (Q9UNQ0 whole entry): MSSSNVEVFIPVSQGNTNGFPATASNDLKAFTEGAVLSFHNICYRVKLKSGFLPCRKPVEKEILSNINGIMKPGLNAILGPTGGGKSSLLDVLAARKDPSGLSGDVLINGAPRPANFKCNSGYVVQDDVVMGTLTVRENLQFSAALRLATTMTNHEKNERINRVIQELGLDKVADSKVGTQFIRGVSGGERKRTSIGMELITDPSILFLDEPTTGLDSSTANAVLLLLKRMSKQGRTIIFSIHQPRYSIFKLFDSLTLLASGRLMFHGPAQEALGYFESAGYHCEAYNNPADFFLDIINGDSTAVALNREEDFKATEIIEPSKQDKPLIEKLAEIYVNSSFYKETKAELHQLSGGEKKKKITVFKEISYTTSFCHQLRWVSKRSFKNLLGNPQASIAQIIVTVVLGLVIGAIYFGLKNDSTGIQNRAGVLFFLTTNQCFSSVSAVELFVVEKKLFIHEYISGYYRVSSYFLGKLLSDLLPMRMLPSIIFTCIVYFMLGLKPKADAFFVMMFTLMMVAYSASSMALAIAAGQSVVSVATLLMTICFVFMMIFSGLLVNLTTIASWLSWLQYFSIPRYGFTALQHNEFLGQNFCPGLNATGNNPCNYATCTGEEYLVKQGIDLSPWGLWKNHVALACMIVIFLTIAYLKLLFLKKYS
# [4] = Drug excretion in human feces at 20 mg, po; type: ADME, tissue-based; details: faeces, read-out: Drug excretion
# [5] = biological target: T2, Cytochrome P450 2C8 (Homo sapiens, UniProt P10632); experiment: Metabolism-dependent inhibition of CYP2C8 in human liver microsomes using rosiglitazone as substrate preincubated for 20 mins with NADPH prior to initiation of reaction with probe substrate by HPLC analysis; type: ADME
# T2 sequence (P10632 whole entry): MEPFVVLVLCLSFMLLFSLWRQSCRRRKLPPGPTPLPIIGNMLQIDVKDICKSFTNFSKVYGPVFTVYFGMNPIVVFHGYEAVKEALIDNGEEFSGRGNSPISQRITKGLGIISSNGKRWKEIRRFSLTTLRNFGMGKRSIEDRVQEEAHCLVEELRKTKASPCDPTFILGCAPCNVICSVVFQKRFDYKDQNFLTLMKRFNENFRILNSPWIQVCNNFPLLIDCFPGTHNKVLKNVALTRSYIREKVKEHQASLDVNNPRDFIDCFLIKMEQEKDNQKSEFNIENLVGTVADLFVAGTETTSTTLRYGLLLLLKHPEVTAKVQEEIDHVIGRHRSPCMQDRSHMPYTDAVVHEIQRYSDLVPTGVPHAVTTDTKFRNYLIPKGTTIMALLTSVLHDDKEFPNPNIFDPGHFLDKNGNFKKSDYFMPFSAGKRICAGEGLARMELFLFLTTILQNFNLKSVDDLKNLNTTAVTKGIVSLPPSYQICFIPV
# [6] = biological target: Cytochrome P450 2C19 (Homo sapiens, UniProt P33261); experiment: Metabolism-dependent inhibition of CYP2C19 in human liver microsomes using S-mephenytoin as substrate preincubated for 20 mins with NADPH prior to initiation of reaction with probe substrate by HPLC analysis; type: ADME
# Sequence of Cytochrome P450 2C19 (P33261 whole entry): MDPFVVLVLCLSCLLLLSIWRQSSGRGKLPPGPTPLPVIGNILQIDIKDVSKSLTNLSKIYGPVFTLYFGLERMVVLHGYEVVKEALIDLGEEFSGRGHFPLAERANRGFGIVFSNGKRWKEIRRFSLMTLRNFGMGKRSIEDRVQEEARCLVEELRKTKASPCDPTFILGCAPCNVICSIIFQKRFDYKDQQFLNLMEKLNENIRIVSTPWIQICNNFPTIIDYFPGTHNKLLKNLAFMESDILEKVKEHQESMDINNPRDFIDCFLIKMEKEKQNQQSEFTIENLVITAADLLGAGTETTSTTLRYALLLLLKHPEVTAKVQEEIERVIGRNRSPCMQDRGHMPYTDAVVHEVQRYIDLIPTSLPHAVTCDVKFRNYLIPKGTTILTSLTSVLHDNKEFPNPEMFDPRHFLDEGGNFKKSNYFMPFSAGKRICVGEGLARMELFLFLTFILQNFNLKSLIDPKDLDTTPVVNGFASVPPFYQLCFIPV
# [7] = biological target: Solute carrier family 22 member 2 (Homo sapiens, UniProt O15244); experiment: Inhibition of human OCT2 expressed in MDCK2 cells using [14C]metformin as substrate at 25 uM by liquid scintillation counting analysis; type: ADME, cell-based; details: mdck-ii
# Sequence of Solute carrier family 22 member 2 (O15244 whole entry): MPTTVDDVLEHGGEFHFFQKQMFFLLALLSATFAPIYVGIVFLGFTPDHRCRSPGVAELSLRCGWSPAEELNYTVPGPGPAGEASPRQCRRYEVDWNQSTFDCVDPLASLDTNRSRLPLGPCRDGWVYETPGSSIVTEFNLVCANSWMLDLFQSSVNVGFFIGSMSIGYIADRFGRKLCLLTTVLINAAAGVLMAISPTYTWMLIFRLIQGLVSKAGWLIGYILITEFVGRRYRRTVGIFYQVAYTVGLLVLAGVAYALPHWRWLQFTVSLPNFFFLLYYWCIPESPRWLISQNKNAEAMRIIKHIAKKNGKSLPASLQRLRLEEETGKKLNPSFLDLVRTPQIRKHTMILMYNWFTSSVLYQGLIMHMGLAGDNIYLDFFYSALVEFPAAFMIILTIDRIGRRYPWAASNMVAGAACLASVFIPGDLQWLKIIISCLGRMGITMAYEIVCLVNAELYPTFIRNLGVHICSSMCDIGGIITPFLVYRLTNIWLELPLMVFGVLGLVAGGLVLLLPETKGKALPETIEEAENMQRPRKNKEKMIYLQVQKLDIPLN
# [8] = biological target: T3, UDP-glucuronosyltransferase 1A1 (Homo sapiens, UniProt P22309); experiment: as §1, with “intrinsic clearance for” for “UDPGA-fortified”, “UGT1A1-mediated” for “UGT2B15-mediated”, “M2” for “metabolite”, “formation” for “formation at 16 uM”, “mins measured per mg of protein” for “mins”; type: ADME; details: recombinant enzyme
# T3 sequence (P22309 whole entry): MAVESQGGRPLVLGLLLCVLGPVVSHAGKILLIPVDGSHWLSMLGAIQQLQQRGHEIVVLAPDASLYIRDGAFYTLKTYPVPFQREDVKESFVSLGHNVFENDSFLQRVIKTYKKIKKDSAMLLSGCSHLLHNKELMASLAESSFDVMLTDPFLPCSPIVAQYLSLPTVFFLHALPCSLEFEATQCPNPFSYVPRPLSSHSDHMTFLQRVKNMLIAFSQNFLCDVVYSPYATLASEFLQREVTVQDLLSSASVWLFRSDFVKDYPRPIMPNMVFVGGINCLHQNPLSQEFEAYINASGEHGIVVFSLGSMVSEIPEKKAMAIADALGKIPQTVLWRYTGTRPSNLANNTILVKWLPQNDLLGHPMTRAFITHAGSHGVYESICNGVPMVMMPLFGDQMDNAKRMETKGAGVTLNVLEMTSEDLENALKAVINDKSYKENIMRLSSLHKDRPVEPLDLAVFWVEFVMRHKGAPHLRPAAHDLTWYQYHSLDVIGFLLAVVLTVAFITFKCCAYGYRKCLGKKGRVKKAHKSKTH
# [9] = Drug excretion in human urine at 20 mg, po; type: ADME, tissue-based; details: read-out: Drug excretion
# [10] = tested on: Liver microsome; experiment: Drug metabolism in NADPH-fortified human liver microsomes assessed as metabolite M3 ((4R,12aS)-N-((3,5-difluorophenyl)(hydroxy)methyl)-7-hydroxy-4-methyl-6,8-dioxo-3,4,6,8,12,12a-hexahydro-2H-[1,3]oxazino[3,2-d]pyrido[1,2-a]pyrazine-9-carboxamide) formation at 5 uM after 120 mins by radio-HPLC analysis; type: ADME
# [11] = biological target: CYP2D6 (Homo sapiens, UniProt P10635); experiment: Inhibition of CYP2D6 in human liver microsomes using bufuralol as substrate at 100 uM preincubated for 20 mins with substrate prior to initiation of reaction with NADPH by HPLC analysis; type: ADME; details: probe bufuralol
# Sequence of CYP2D6 (P10635 whole entry): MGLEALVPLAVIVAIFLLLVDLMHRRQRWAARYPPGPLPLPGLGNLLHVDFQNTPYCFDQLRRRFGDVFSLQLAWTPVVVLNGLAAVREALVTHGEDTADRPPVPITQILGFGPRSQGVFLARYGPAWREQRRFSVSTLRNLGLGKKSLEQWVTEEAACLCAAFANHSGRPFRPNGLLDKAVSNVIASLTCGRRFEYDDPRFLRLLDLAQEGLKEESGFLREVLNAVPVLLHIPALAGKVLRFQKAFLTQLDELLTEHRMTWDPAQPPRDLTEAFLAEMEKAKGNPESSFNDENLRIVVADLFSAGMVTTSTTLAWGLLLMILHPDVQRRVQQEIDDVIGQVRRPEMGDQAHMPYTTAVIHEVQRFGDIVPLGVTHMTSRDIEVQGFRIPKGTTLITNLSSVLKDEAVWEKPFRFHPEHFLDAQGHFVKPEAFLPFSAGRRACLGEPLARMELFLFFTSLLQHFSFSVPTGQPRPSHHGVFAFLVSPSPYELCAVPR
# [12] = biological target: Cytochrome P450 2C9 (Homo sapiens, UniProt P11712); experiment: Metabolism-dependent inhibition of CYP2C9 in human liver microsomes using diclofenac as substrate preincubated for 20 mins with NADPH prior to initiation of reaction with probe substrate by HPLC analysis; type: ADME
# Sequence of Cytochrome P450 2C9 (P11712 whole entry): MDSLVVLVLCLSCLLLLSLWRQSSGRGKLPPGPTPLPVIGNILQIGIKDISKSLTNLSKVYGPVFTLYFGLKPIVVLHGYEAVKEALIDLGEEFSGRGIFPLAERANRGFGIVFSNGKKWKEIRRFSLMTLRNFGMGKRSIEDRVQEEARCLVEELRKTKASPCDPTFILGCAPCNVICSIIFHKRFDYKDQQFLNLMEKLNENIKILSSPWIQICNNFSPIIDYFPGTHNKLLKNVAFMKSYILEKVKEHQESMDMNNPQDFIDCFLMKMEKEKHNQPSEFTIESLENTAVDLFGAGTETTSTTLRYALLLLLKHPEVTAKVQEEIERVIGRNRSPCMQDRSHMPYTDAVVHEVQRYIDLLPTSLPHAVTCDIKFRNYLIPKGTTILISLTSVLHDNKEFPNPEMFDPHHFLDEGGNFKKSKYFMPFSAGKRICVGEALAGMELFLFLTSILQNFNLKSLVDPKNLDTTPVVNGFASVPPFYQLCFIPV
# [13] = biological target: Cytochrome P450 2D6 (Homo sapiens, UniProt P10635); experiment: Inhibition of CYP2D6 in human liver microsomes using bufuralol as substrate preincubated for 20 mins with substrate prior to initiation of reaction with NADPH by HPLC analysis; type: ADME
# Sequence of Cytochrome P450 2D6 (P10635 whole entry): as the sequence (P10635 whole entry) above
# [14] = as §1, with “metabolism in human hepatocytes” for “metabolism”, “as” for “as UDPGA-fortified human recombinant UGT2B15-mediated”, “50” for “16”, “4 to 20 hrs” for “120 mins”; type: ADME, cell-based, Hepatocyte
structure (smiles),measurement,setting,value
C[C@@H]1CCO[C@H]2Cn3cc(C(=O)NCc4ccc(F)cc4F)c(=O)c(O)c3C(=O)N12 [DOLUTEGRAVIR],Activity,[1],Toxic
same,Drug metabolism,[2],metabolite_not_detected
same,IC50,[3],> 30 µM
same,dose excreted,[4],3.1%
same,IC50,[5],> 100 µM
same,IC50,[6],> 100 µM
same,inhibition (INH),[7],91%
same,CL,[8],3.2 µL/min/g
same,dose excreted,[9],31.6%
same,Drug metabolism,[10],metabolite_detected
same,inhibition at 100 µM,[11],20%
same,IC50,[12],> 100 µM
same,IC50,[13],> 100 µM
same,Drug metabolism,[14],metabolite_detected
